# Laboratory results taken from ChEMBL document CHEMBL1201862, “PubChem BioAssay data set” (2004).
# The source made the active and inactive calls. For most assays here, no stated cut-off is given here; in the data, actives have a measured EC50 and inactives only a lower limit.
# Legend:
# [1] = Luminescence Cell-Based Dose Confirmation HTS to Identify Activators of 5'UTR Stem-Loop Driven Alpha-Synuclein mRNA Translation in H4 Neuroglioblastoma Cells. [Related pubchem assays: 1829 (Project Summary), 1814 (Primary HTS)]; type: functional
# [2] = Luminescence Cell-Based Dose Response HTS to Identify Activators of Luciferase Translation or Activity in H4 […] Cells. [Related pubchem assays: 1829 (Project Summary), 1814 (Primary HTS)]; type: functional
# H4 = assay: Luminescence Cell-Based Dose Response HTS to Identify Activators of 5'UTR Stem-Loop Driven Prion Protein mRNA Translation in H4 Neuroglioblastoma Cells. [Related pubchem assays: 1829 (Project Summary), 1814 (Primary HTS)]; type: functional; conditions: Homo sapiens
# cells [3] = type: functional, cell-based
# cells [4] = type: functional, cell-based; remark: listed apart in the source
# [5] = target: T1, Rac GTPase-activating protein 1 (Homo sapiens, UniProt Q9H0H5); assay: MgcRacGAP GTPase-activating activity inhibitors, confirmation, biochemical, ADP Hunter fluorescence, primary and confirmatory (AID 624330); type: functional
# T1 sequence (Q9H0H5 whole entry): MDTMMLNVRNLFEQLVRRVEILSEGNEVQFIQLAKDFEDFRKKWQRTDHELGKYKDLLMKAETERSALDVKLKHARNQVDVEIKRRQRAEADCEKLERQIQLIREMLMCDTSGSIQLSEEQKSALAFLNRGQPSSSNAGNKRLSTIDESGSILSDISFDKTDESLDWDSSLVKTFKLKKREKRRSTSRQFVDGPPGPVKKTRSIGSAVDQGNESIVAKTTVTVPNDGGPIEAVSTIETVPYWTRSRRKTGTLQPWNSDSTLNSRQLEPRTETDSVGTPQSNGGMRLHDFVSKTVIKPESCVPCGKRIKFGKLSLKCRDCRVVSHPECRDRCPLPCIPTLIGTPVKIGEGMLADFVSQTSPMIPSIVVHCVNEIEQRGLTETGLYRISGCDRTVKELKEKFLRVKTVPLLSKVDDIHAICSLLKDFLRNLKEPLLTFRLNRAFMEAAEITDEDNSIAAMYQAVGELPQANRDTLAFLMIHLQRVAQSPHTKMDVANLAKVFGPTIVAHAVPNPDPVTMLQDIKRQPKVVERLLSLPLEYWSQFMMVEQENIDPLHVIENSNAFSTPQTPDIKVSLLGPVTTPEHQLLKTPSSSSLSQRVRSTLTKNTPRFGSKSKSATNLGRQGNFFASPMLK
# [6] = target: T2, Heat shock factor protein 1 (Mus musculus, UniProt P38532); assay: inhibition of MG132-induced HSE-luciferase signal, confirmation, cell-based, NIH3T3, luminescence, dose retest (AID 2382); type: functional;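 further: NIH3T3 fibroblasts with HSF1-driven luciferase reporter stressed by proteasome inhibitor MG132; luminescence from HSF1-driven luciferase expression after 8 hours of MG132 stress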
# T2 sequence (P38532 whole entry): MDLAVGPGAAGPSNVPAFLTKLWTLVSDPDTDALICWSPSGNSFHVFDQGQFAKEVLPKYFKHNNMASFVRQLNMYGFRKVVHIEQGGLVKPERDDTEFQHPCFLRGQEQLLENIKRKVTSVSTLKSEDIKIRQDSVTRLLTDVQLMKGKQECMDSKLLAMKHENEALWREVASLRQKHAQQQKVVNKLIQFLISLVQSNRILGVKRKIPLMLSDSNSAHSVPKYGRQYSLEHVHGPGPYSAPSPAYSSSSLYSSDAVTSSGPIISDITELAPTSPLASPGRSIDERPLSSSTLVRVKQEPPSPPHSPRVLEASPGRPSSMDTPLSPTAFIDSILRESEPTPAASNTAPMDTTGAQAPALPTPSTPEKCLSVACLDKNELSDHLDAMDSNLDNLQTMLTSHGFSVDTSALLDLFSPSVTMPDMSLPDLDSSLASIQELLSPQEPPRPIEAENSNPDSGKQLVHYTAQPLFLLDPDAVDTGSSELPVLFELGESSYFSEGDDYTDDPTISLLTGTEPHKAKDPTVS
# [7] = target: T3, Corticotropin-releasing factor receptor 2/Corticotropin-releasing factor-binding protein (Homo sapiens, UniProt P24387+Q13324); assay: Dose Response confirmation of uHTS hits for small molecule antagonists of the CRF-binding protein and CRF-R2 receptor complex.; type: functional; conditions: read-out: IC50_Mean
# T3 sequence (Q13324 whole entry): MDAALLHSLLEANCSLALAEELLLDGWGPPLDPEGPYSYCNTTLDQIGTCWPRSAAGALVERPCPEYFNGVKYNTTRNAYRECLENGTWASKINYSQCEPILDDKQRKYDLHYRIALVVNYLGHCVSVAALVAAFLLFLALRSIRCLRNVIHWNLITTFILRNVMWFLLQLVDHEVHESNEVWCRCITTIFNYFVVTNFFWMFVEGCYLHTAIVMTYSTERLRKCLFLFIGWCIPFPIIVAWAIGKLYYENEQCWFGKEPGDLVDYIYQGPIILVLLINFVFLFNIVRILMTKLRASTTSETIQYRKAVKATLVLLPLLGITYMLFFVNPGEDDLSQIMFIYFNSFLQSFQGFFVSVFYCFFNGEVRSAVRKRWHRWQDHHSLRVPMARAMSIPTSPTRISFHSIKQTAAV
# T3 sequence (P24387 whole entry): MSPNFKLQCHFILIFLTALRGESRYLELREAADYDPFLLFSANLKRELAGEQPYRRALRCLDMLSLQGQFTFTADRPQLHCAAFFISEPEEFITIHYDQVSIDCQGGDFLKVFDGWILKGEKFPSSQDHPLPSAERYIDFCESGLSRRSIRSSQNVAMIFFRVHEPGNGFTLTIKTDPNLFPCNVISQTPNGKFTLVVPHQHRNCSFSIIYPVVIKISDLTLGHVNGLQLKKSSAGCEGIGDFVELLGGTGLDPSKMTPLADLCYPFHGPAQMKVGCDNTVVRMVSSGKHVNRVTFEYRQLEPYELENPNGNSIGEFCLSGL
# [8] = target: T3, Corticotropin-releasing factor receptor 2/Corticotropin-releasing factor-binding protein; assay: activators of CRF receptor 2 with binding protein – uHTS hits, confirmation (AID 602473); type: functional; conditions: read-out: EC50_Mean
# [9] = HEp-2 cell cytotoxicity, dose response, cytotoxicity control for RSV inhibitor project, HTS (AID 2410); type: functional; conditions: human respiratory syncytial virus
# [10] = growth suppression of beta-catenin-knockout colon cells, dose response, cell-based, HCT116, human colon tumor (AID 1045); type: functional;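 further: HCT116 colon tumor cells with beta catenin knocked out; cells exposed to compound for 60 hours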
SMILES,EC50 [1],EC50 [2],EC50 (H4),IC50 [7],EC50 [8],other results
O=C(/C=C/c1cccs1)Nc1ccc(N2CCOCC2)c(S(=O)(=O)Nc2ccccc2Cl)c1,12 µM (active),46.3 µM (active),22.2 µM (active),–,–,–
CN(CCOC(=O)CN1C(=O)c2ccccc2C1=O)C1=NS(=O)(=O)c2ccccc21,> 120 µM (not active),46.8 µM (active),> 120 µM (not active),–,–,–
CC(C)(C)c1cc(C(=O)N2CCN(c3ncccn3)CC2)ccn1,–,–,–,–,–,EC50 (cells [3]): > 350 µM (not active); EC50 (cells [4]): > 350 µM (not active)
Cc1cccc(-n2cnc3cc(C(=O)N4CCCCC4)ccc32)c1,17.9 µM (active),7.6 µM (active),13.9 µM (active),–,–,–
O=C1/C(=C/c2nc3ccccc3[nH]2)SC(=S)N1c1ccccc1,–,–,–,–,–,EC50 (cells [3]): > 350 µM (not active); EC50 (cells [4]): > 350 µM (not active)
Cc1cc(C(c2nnnn2Cc2ccccc2)N2CCOCC2)c(C)n1-c1ccc2c(c1)OCO2 (stereo not drawn),91.8 µM (active),> 120 µM (not active),35.6 µM (active),–,–,–
COCCCNC(=O)/C(C#N)=C/c1c(N2CCN(c3ccc(OC)cc3)CC2)nc2c(C)cccn2c1=O,–,–,–,–,–,IC50 [5]: 114 µM (active)
Cc1cc(OC(C)C(=O)NNC(=O)Nc2ccc(F)cc2F)cc(C)c1Cl (stereo not drawn),–,–,–,–,–,EC50 (cells [3]): > 350 µM (not active); EC50 (cells [4]): > 350 µM (not active)
CCn1cc(Br)c(-c2nc3ccccc3c(=O)n2N)n1,102 µM (active),8.16 µM (active),> 120 µM (not active),–,–,–
COc1ccc(NC2CCCN(C(=O)CCN3CCCO3)C2)cc1 (stereo not drawn),–,–,–,–,–,IC50 [5]: 128 µM (active)
Cc1ccc(C)n1NC(=O)c1ccccc1O,–,–,–,> 47.1 µM (inactive),> 53 µM (inactive),EC50 [6]: > 195 µM (not active)
COc1ccc(C2=Nc3ccccc3C2(O)CCN2C(=O)c3ccccc3C2=O)cc1 (stereo not drawn),–,–,–,> 47.1 µM (inactive),> 53 µM (inactive),–
O=C(c1cnn2c1NC(c1ccco1)CC2C(F)(F)F)N1CCN(c2cccc(Cl)c2)CC1 (stereo not drawn),> 120 µM (not active),> 120 µM (not active),> 120 µM (not active),–,–,–
COc1ccc(NC2CCCN(C(=O)C3=NNC(=O)CC3)C2)cc1 (stereo not drawn),–,–,–,–,–,IC50 [5]: 120 µM (active)
CCOc1ccccc1C(=O)OCC(=O)NCC1CCCO1 (stereo not drawn),–,–,–,> 47.1 µM (inactive),> 53 µM (inactive),–
Cc1ccc(OCc2cc(C(=O)N3CCN(CC(=O)NC(C)C)CC3)no2)cn1,–,–,–,> 47.1 µM (inactive),> 53 µM (inactive),–
COc1ccc(/C=C2\SC(=O)N(CCNC(=O)C3CCN(S(=O)(=O)c4cccs4)CC3)C2=O)cc1,10.2 µM (active),36.7 µM (active),19.1 µM (active),–,–,–
Cc1ccc(Cn2nc(-c3ccccc3)nc2-c2ccccc2)cc1,5.09 µM (active),20 µM (active),17.9 µM (active),–,–,–

SMILES,EC50 [1],EC50 [2],EC50 (H4),IC50 [7],EC50 [8],other results
O=C1N=C(N2CCCCC2)SC1=C1CCCCC1,13.8 µM (active),5.25 µM (active),21.5 µM (active),–,–,–
N#C/C(=C\C1CC=CCC1)c1nc2ccccc2[nH]1 (stereo not drawn),21.9 µM (active),26.3 µM (active),23.7 µM (active),–,–,CC50 [9]: 23.4 µM (active)
Cc1noc(C)c1NC(=O)Nc1ccc2c(c1)C(=O)N([C@H](C)CO)C[C@H](C)[C@@H](CN(C)S(=O)(=O)c1ccc(F)cc1)O2,–,–,–,> 47.1 µM (inactive),> 53 µM (inactive),–
O=C(NCCc1cccnc1)C1CCC(=O)N(Cc2ccc(Cl)cc2)C1 (stereo not drawn),–,–,–,> 47.1 µM (inactive),> 53 µM (inactive),–
NC(=O)COC(=O)c1ccc(-c2ccc(O)cc2)cc1,–,–,–,> 47.1 µM (inactive),> 53 µM (inactive),–
COc1ccc(C2C3=C(O)CC(C)(C)CC3=Nc3c2c(=O)n(C)c(=O)n3C)cc1OC (stereo not drawn),–,–,–,> 47.1 µM (inactive),> 53 µM (inactive),–
Cc1cn([C@H]2C[C@H](O)[C@@H](CNCC3=Cc4cc(O)ccc4OC3)O2)c(=O)[nH]c1=O,–,–,–,–,–,IC50 [5]: 95.9 µM (active)
O=C1/C(=C/c2ccccn2)SC(=S)N1CCc1ccccc1,8.16 µM (active),10.9 µM (active),19.4 µM (active),–,–,–
CCn1c(CNc2ccc(OC)cc2)nnc1SCC(=O)c1ccc(OC)cc1,–,–,–,–,–,EC50 [10]: 470 µM (active)
Fc1ccc(CN2CCN(C(c3ccccc3)c3ccccc3)CC2)cc1,–,–,–,–,–,IC50 [5]: 236 µM (active)
CCOc1ccccc1N(CC(=O)N/N=C/c1cc(Br)ccc1OC)S(C)(=O)=O,–,–,–,–,–,EC50 (cells [3]): > 350 µM (not active); EC50 (cells [4]): > 350 µM (not active)
O=C(CSc1nc(O)c2ccccc2n1)Nc1ccc(Br)cc1,–,–,–,–,–,EC50 (cells [3]): > 350 µM (not active); EC50 (cells [4]): > 350 µM (not active)
O=C(O)c1cc(-c2ccccc2)nc(-c2ccccc2)c1,–,–,–,> 47.1 µM (inactive),> 53 µM (inactive),–
Cc1csc(NC(=O)Cc2ccc(Br)cc2)n1,–,–,–,> 47.1 µM (inactive),> 53 µM (inactive),–
N#Cc1cccc(NCC(=O)Nc2ccc3c(c2)OCCO3)c1,–,–,–,> 47.1 µM (inactive),> 53 µM (inactive),–
c1ccc(-c2ccc(OCCOCCn3cncn3)cc2)cc1,30.9 µM (active),45.9 µM (active),17.2 µM (inconclusive),–,–,–
COc1ccccc1C(=O)N1CCN(Cc2cccnc2)CC1,–,–,–,–,–,IC50 [5]: 101 µM (active)
CN(C)c1ccc(NC(=O)COC(=O)CNC(=O)c2cccs2)cc1,–,–,–,–,–,IC50 [5]: 45.6 µM (active)
